Here are results for five compounds from article PMC6259134, “Synthesis, Antimycobacterial, Antifungal and Photosynthesis-Inhibiting Activity of Chlorinated N-phenylpyrazine-2-carboxamides” (Molecules, 2010).

Molecules are shown by their SMILES. Values after ≈ are worked out from the molar mass of the structure shown. Values joined by “and” are separate entries in the source; they are usually repeats but may differ in a detail not shown here. Equal values may be shown once. Read-outs that look alike come from different tables or passages of the source.

One data set has as its system M. tuberculosis H37Rv. As to conditions: cited from earlier work.
Data set [1] has as its system Trichophyton mentagrophytes 445. Briefly: In vitro antifungal susceptibility testing (microdilution broth method). Type of data set: cell-based. To be noted: Trichophyton mentagrophytes, 445, T. mentagrophytes.
Data set [2] concerns M. tuberculosis H37Rv (ATCC27294). Put plainly: In vitro antimycobacterial primary screening (TAACF, BACTEC 460 / MABA). Type of data set: cell-based. As to conditions: Mycobacterium tuberculosis, read-out: Antimycobacterial evaluation Inhibition. The method, then:
All compounds were assayed in vitro against M. tuberculosis H37Rv. […] None of the tested derivatives overcame this limit, see Table 2.
Antimycobacterial evaluation was carried out in the tuberculosis antimicrobial acquisition and coordinating facility (TAACF), Southern Research Institute, Birmingham, AL, U.S.A., which is a part of the National Institutes of Health (NIH). Primary screening of all compounds was conducted at 6.25 µg/mL against M. tuberculosis H37Rv (ATCC27294) in BACTEC 12B medium using both BACTEC 460 radiometric system and the Microplate Alamar Blue Assay (MABA). For the results see Table 2.

On the set-up of data set [3]: method as in PMID 1151976, doi:10.1002/9780470171912.ch3. To be noted: Hammett's constant of R3 phenyl substituent; cited from earlier work.
Data set [4] has as its system photosynthetic electron transport (PET) in spinach chloroplasts. Briefly: Inhibition of photosynthetic electron transport (PET) in spinach chloroplasts (DCPIP photoreduction). The data set is classed as biochemical, Spinacia oleracea L. The procedure:
The activity of the majority of the studied compounds was moderate or low relative to the standard. Chloroplasts were prepared from spinach (Spinacia oleracea L.) according to Masarovičová and Kráľová [26]. […] [27], and the rate of photosynthetic electron transport was monitored as a photoreduction of DCPIP. The measurements were carried out in phosphate buffer (0.02 mol/L, pH 7.2) containing sucrose (0.4 mol/L), MgCl2 (0.005 mol/L) and NaCl (0.015 mol/L). The chlorophyll content was 30 mg/L in these experiments and the samples were irradiated (~100 W/m^2) from 10 cm distance with a halogen lamp (250 W) using a 4 cm water filter to prevent warming of the samples (suspension temperature 22 °C). The studied compounds were dissolved in DMSO due to their limited water solubility. […] The inhibitory efficiency of the studied compounds was manifested by IC50 values, i.e. by molar concentration of the compounds causing 50% decrease in the […] relative to the untreated control.

Data set [5] can be described thus: Lipophilicity determination by RP-HPLC (capacity factor k / log k, distributive π parameters). The data set is classed as physicochemical. The procedure:
The procedure was performed under isocratic conditions with methanol as an organic modifier in the mobile phase using an end-capped non-polar C18 stationary RP column. The results are shown in Table 1 and illustrated in Figure 2. Waters Alliance 2695 XE HPLC separation module and Waters Photodiode Array Detector 2996 (Waters Corp., Milford, MA, USA) were used. Waters Symmetry® C18 5 μm, 4.6 ° 250 mm, Part No. WAT054275 (Waters Corp., Milford, MA, USA) chromatographic column was used. The HPLC separation process was monitored by Empower™ 2 Chromatography Data Software, Waters 2009 (Waters Corp., Milford, MA, USA). The mixture of MeOH (HPLC grade, 70%) and H2O (HPLC–Mili-Q Grade, 30%) was used as a mobile phase. The total flow rate of the column was 1.0 mL/min, injection volume 30 μL, column temperature 30 °C and sample temperature 10 °C were used. The detection wavelength of 210 nm was chosen. The KI methanolic solution was used for the dead time (tD) determination. Retention times (tR) were measured in minutes. The capacity factors k were calculated using the Empower™ 2 Chromatography Data Software according to formula k = (tR - tD)/tD, where tR is the retention time of the solute, whereas tD denotes the dead time obtained using an unretained analyte. Log k, calculated from the capacity factor k, is used as the lipophilicity index converted to log P scale. Distributive π parameters characterizing lipophilicity of the individual substituents were calculated according to the formula π = log kS – log kU, where log kS is the determined capacity factor logarithm of the individual substituted compounds, whereas log kU denotes the determined capacity factor logarithm of the unsubstituted compound, it means π = 0.

Data set [6] concerns photosynthetic electron transport (PET) in spinach chloroplasts. Details: method as in earlier work. As to conditions: standard, read-out: PET inhibition IC50; cited from earlier work.

Turning to `CC(C)(C)c1ncc(C(=O)Nc2cccc(C(F)(F)F)c2)nc1Cl` [5-tert-butyl-6-chloro-N-(3-trifluoromethylphenyl)pyrazine-2-carboxamide], the MIC in the data set on M. tuberculosis H37Rv was 3.13 to 6.25 µg/mL.

On to `CC(C)(C)c1ncc(C(=O)Nc2ccc(Cl)c(Cl)c2)nc1Cl` [Compound 16, 6-chloro-5-tert-butyl-N-(3,4-dichlorophenyl)pyrazine-2-carboxamide], for which the MIC was 62.5 µM (≈ 22.4 µg/mL) in data set [1] (after 72 h, MIC for moulds determined as IC50 value, read-out: Antifungal susceptibility MIC); 62.5 µM (≈ 22.4 µg/mL) in data set [1] (after 120 h, MIC for moulds determined as IC50 value, read-out: Antifungal susceptibility MIC); 62.5 µM (≈ 22.4 µg/mL) in data set [1] (incubation time not given, read-out: MIC). In data set [2], the inhibition at 6.25 µg/mL was 0%. In addition, the σ in data set [3] is 0.60. For the same compound, in data set [4], half-maximal inhibition (IC50) was put at 130000 nM. The log k in data set [5] (RP-HPLC, C18, MeOH 70%/H2O 30%, isocratic) is given as 1.7563. In addition, the “π determined Ph” value in data set [5] (distributive parameter of phenyl substituents, calculated from log k) is recorded as 0.51. In addition, in data set [5] (distributive parameter of pyrazine substituents, calculated from log k), the “π determined Pyr” value was 1.04.

As to `CN(C)C(=O)Nc1ccc(Cl)c(Cl)c1` [DCMU, 3-(3,4-dichlorophenyl)-1,1-dimethylurea], the IC50 in data set [6] was ~1900 nM and 1900 nM.

Take `O=C(Nc1cccc(C(F)(F)F)c1)c1cnccn1` [N-(3-Trifluoromethylphenyl)pyrazine-2-carboxamide]: the MIC in the data set on M. tuberculosis H37Rv is 3.13 to 6.25 µg/mL.

On to `Cc1ccc(NC(=O)c2cnccn2)cc1I` [N-(3-iodo-4-methylphenyl)pyrazine-2-carbox-amide], for which the MIC in the data set with M. tuberculosis H37Rv was 3.13 to 6.25 µg/mL.
